Measured values taken from US20050014675A1, “Cell migration inhibitor” (priority 2001, published 2005).
Where a name gives a salt, the structure may show the parent alone. Non-standard residues stand in square brackets, D forms with d. Residues, ends and D or L forms follow the SMILES beside them. No end group written: not given here. dTrp(2-Me) = Cc1[nH]c2ccccc2c1C[C@@H](N)C(=O)O; d2Nal = N[C@H](Cc1ccc2ccccc2c1)C(=O)O

Experiments:
Format in all cases: cell-based
[1] = system: human vascular smooth muscle cells; assay: PDGF-induced migration of human vascular smooth muscle cells (Boyden's chamber); settings: for action on the PDGF-induced migration of vascular smooth muscle cells (summary of Test 1): Test 1, summary statement; for suppressive action on PDGF-induced migration / action on PDGF-induced migration: human vascular smooth muscle cells, FIG. 4; for suppressive action on PDGF-induced migration: compound at 10 nM
Method: (§1) Human vascular smooth muscle cells were cultured in SmBM with the additive factors in a culture incubator (37° C., 5% CO2/95% air) and cells at the 5th-9th passage were used in the test. Rabbit vascular smooth muscle cells were obtained by an explant technique from the media of rabbit thoracic aorta and cultured in DMEM with 10% fetal bovine serum; cells at the 5th-7th passage were used in the test.
(§2) Cells that proliferated to confluence were detached with trypsin, washed twice with an additive factor free medium, dispersed in SmBM containing 0.1% fetal bovine serum and prepared to a cell density of 5×10^5 cells/mL. Migration of cells was assayed according to Koyama et al. method (J. Biol. Chem. (1993) 268:13301-13308) using a 48-well Boyden's chamber (Neuro probe). To be more specific, 28 μL of SmBM containing 10 ng/mL of PDGF and 0.1% FBS was placed in the lower chamber and 50 μL of a cell dispersion preliminarily incubated with each assay compound for 10 minutes was placed in the upper chamber. The upper chamber and the lower chamber were separated by a polycarbonate filter (having pores 8 μm in diameter) precoated with type I collagen (Nitta Gelatin Inc.) Since the placement of the cell dispersion, the Boyden's chamber was incubated in a culture incubator (37° C., 5% CO2/95% air) for 4 hours. The cells on the upper side of the filter were scraped off and the cells that had migrated to the lower side of the filter were fixed in methanol and stained with Diff-Quick staining solution (International Reagents Corporation). The filter had been air-dried on a glass slide and sealed with Enteran New. The cells were counted under a high-power microscope (×200) in 4 fields per well and the number of cells that had migrated was averaged to determine the migration activity.
The result of each treated group was represented by the mean±standard deviation for 3 wells. Statistical significance was estimated by one-way ANOVA, if p value was less than 5%, followed by Dunnett method to compare between vehicle-treated group and the others in the presence of a migration inducer. Values of p less than 5% were considered to be significant.

[2] = system: rabbit vascular smooth muscle cells; assay: PDGF-induced migration of rabbit vascular smooth muscle cells (Boyden's chamber); settings: treatment with 10 nM, FIG. 3
Method: as §1
Cells that proliferated to confluence were detached with trypsin, washed twice with an additive factor free medium, dispersed in SmBM containing 0.1% fetal bovine serum and prepared to a cell density of 5×10^5 cells/mL. Migration of cells was assayed according to Koyama et al. method (J. Biol. Chem. (1993) 268:13301-13308) using a 48-well Boyden's chamber (Neuro probe). To be more specific, 28 μL of SmBM containing 10 ng/mL of PDGF and 0.1% FBS was placed in the lower chamber and 50 μL of a cell dispersion preliminarily incubated with each assay compound for 10 minutes was placed in the upper chamber. […] The cells were counted under a high-power microscope (×200) in 4 fields per well and the number of cells that had migrated was averaged to determine the migration activity. […]

Human mesangial cells = assay: PDGF-induced migration of human mesangial cells (Boyden's chamber)
Method: as §2, with “activity. […]” for “activity.”

Compound	action on the PDGF-induced migration of vascular smooth muscle cells (summary of Test 1) [1]	suppressive action on PDGF-induced migration [1]	further results
CC(C)(N)C(=O)N[C@H](COCc1ccccc1)C(=O)N1CCC2(CC1)CN(S(C)(=O)=O)c1ccccc12 [MK-0677, ibutamorelin methanesulfonate]	potent inhibitory action	significant suppressive action	
GHRH: human-type growth-hormone releasing hormone (Peptide Institute, Inc.) (YADAIFTNSYRKVLGQLSARKLLQDIMSRQQGESNQERGARARL; ends and bridges not checked; UniProt P01286 32-75, looked up)	no action		action on PDGF-induced migration ([1]; at 10 nM): no action
C[C@H](NC(=O)[C@@H](Cc1ccc2ccccc2c1)NC(=O)[C@@H](C)N)C(=O)N[C@@H](Cc1c[nH]c2ccccc12)C(=O)N[C@H](Cc1ccccc1)C(=O)N[C@@H](CCCCN)C(N)=O [KP-102, Pralmorelin dihydrochloride] (H-[dA][d2Nal]AW[dF]K-NH2)	potent inhibitory action		suppressive action on PDGF-induced migration [2]: significant suppressive action; concentration with significant suppression of PDGF-induced migration (Human mesangial cells; FIG. 8): ≥ 0.1 nM
GH: recombinant human growth hormone (Wako Pure Chemical Industries, Ltd.)	no action		action on PDGF-induced migration ([1]; at 0.1 μg/mL): no action
ghrelin	potent inhibitory action		suppressive action on PDGF-induced migration [2]: significant suppressive action; suppression of PDGF-induced migration (Human mesangial cells; FIG. 9): This action was also verified
CN1N=C2CCN(C(=O)[C@@H](COCc3ccccc3)NC(=O)C(C)(C)N)C[C@@]2(Cc2ccccc2)C1=O [CP-424,391, capromorelin]	potent inhibitory action	significant suppressive action	
Cc1[nH]c2ccccc2c1C[C@@H](NC(=O)[C@@H](N)Cc1cnc[nH]1)C(=O)N[C@@H](C)C(=O)N[C@@H](Cc1c[nH]c2ccccc12)C(=O)N[C@H](Cc1ccccc1)C(=O)N[C@@H](CCCCN)C(N)=O [hexarelin] (H-H[dTrp(2-Me)]AW[dF]K-NH2)	potent inhibitory action	significant suppressive action	
CNC(=O)[C@@H](Cc1ccccc1)N(C)C(=O)[C@@H](Cc1ccc2ccccc2c1)N(C)C(=O)/C=C/CC(C)(C)N [NN-703, tabimorelin]	potent inhibitory action	significant suppressive action	
GHRP-6	potent inhibitory action	significant suppressive action	
